Experimental data: EP4745135A1 (Gluetacs Therapeutics (Shanghai) Co., Ltd., priority 2023, dated 2025)

Columns and labels:
CK1α = target: T1, CK1α (Homo sapiens, UniProt P48729+Q96SW2); assay: Western blot, degradation of substrate protein in hPBMCs; assay type: cell-based; conditions: 24 hours treatment, compounds at 50 nM and 500 nM (concentration behind the class not stated)
T1 construct: effects of the compounds of the present disclosure on the expression of target proteins in cells; endogenous in cells; host or cells: human PBMCs (Milecell Biotechnologies)

IKZF1 = target: T2, IKZF1 (Homo sapiens, UniProt Q13422+Q96SW2); assay: as above; assay type: cell-based; conditions: 24 hours treatment, compounds at 50 nM and 500 nM (concentration behind the class not stated)
T2 construct: effects of the compounds of the present disclosure on the expression of target proteins in cells; endogenous in cells; host or cells: human PBMCs (Milecell Biotechnologies)

IKZF2 = target: T3, IKZF2 (Homo sapiens, UniProt Q96SW2+Q9UKS7); assay: as above; assay type: cell-based; conditions: 24 hours treatment, compounds at 50 nM and 500 nM (concentration behind the class not stated)
T3 construct: effects of the compounds of the present disclosure on the expression of target proteins in cells; endogenous in cells; host or cells: human PBMCs (Milecell Biotechnologies)

IKZF3 = target: T4, IKZF3 (Homo sapiens, UniProt Q96SW2+Q9UKT9); assay: as above; assay type: cell-based; conditions: 24 hours treatment, compounds at 50 nM and 500 nM (concentration behind the class not stated)
T4 construct: effects of the compounds of the present disclosure on the expression of target proteins in cells; endogenous in cells; host or cells: human PBMCs (Milecell Biotechnologies)

WEE1 = target: T5, WEE1 (Homo sapiens, UniProt P30291+Q96SW2); assay: as above; assay type: cell-based; conditions: 24 hours treatment, compounds at 50 nM and 500 nM (concentration behind the class not stated)
T5 construct: effects of the compounds of the present disclosure on the expression of target proteins in cells; endogenous in cells; host or cells: human PBMCs (Milecell Biotechnologies)

GSPT1 = assay: as above; assay type: cell-based, Human; conditions: 24 hours treatment, compounds at 50 nM and 500 nM (concentration behind the class not stated)
[1] = target: T6, human Cereblon WT GST-tagged protein (Homo sapiens, UniProt Q96SW2); assay: CRBN-binding affinity, HTRF (CEREBLON BINDING kit); conditions: for inhibition at 0.5 µM: read-out: Inhibition Rate at 0.5 µM (%); for inhibition at 2 µM: read-out: Inhibition Rate at 2 µM (%)
T6 construct: purchased CISBIO 64BDCRBNPEH

[2] = test system: Human monocytic leukemia cell line: THP-1; assay: Tumor cell proliferation inhibition (CellTiter-Meiluncell luminescent cell viability assay); conditions: THP-1, 96 h; for inhibition at 0.01 µM: read-out: Inhibition Rate at 10 nM (%); for inhibition at 0.5 µM: read-out: Inhibition Rate at 500 nM (%)
Experimental: (§1) The tumor cells used herein were cultured in a cell culture medium listed in table 2 at 37°C in an incubator with 5% CO2. Prior to experimentation, all cell lines used were correctly identified by STR profiling, and tested negative for mycoplasma contamination using a mycoplasma detection kit through routine screenings.
(§2) The IC50 values of the compounds of the present disclosure (including the compounds in Table 1 and Examples) were determined using the CellTiter-Meiluncell Luminescent Cell Viability Assay Kit from Dalian Meilun Biotech Co., Ltd. The detailed procedure is as follows: Tumor cells were seeded in 96-well cell culture plates at the densities specified in Table 3. On the following day, the test compounds of the present disclosure were subjected to serial dilution. The dilution can be performed according to one of the following two methods: • (1) The first dilution method: The test compounds of the present disclosure (including the compounds in Table 1 and Examples) were subjected to 5-fold serial dilutions starting from a highest concentration of 2000 µM, resulting in a total of 9 concentrations from high to low (2000, 400, 80, 16, 3.2, 0.64, 0.128, 0.0256, 0.00512 µM). Subsequently, 0.5 µL of the test compound dilution was transferred into the 96-well plate containing the cells, with each well containing 100 µL of cell culture medium. […] Into the 96-well plate, the diluted test compounds and corresponding detection reagents were added, resulting in final test compound concentrations of 500 nM and 10 nM, respectively. The experimental procedure is described below using the diluted 2 µM test compound as an example.
(§3) 0.5 µL of the aforementioned diluted compound of the present disclosure (including the compounds in Table 1 and Examples) was added to the seeded cells in 100 µL of medium, yielding a final test compound concentration of 10 nM. After the cells were treated with the compounds of the present disclosure for a specified period, the cell viability assay reagent was added to the culture medium according to the kit's instructions to determine cell viability. […] All controls were treated using the same procedure as the compounds of the present disclosure. The growth inhibition curves for the compounds of the present disclosure were plotted using Prism GraphPad software, and the IC50 values were calculated therefrom.

[3] = test system: Human colon cancer cell line: SW620; assay: as above; conditions: SW-620, 96 h; for inhibition at 0.01 µM: read-out: Inhibition Rate at 10 nM (%); for inhibition at 0.5 µM: read-out: Inhibition Rate at 500 nM (%)
Experimental: as §1, §2, §3

[4] = test system: Human malignant melanoma cell line: A375; assay: as above; conditions: A-375, 96 h; for inhibition at 0.01 µM: read-out: Inhibition Rate at 10 nM (%); for inhibition at 0.5 µM: read-out: Inhibition Rate at 500 nM (%)

T6 sequence (Q96SW2 whole entry): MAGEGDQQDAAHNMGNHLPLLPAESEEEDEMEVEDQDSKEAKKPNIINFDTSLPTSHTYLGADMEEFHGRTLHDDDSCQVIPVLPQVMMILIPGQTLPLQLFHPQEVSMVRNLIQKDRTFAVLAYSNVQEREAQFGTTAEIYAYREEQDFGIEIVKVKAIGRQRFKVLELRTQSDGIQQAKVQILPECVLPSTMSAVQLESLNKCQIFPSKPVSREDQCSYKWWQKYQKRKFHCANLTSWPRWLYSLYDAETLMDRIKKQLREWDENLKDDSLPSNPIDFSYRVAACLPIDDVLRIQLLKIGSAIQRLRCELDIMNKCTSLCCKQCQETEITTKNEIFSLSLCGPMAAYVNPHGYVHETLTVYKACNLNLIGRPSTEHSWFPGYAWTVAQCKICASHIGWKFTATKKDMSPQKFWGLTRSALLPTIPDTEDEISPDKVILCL
T2 sequence (Q13422 whole entry): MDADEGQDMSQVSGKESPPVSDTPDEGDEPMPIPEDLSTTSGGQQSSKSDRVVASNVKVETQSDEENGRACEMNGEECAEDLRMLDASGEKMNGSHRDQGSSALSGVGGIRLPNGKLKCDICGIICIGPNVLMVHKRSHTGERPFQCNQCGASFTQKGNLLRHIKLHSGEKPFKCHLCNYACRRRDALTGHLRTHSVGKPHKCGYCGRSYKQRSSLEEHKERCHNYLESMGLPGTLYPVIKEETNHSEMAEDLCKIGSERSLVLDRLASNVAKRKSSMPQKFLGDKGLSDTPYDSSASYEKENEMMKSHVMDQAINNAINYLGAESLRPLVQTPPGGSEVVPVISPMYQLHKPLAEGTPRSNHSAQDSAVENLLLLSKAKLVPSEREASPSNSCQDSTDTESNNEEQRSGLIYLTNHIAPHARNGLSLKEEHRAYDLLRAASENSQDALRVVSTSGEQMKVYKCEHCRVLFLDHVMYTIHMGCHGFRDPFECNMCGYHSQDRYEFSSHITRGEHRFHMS
T2 sequence (Q96SW2 whole entry): as the sequence (Q96SW2 whole entry) above
T2 sequence (Q16531 whole entry partner): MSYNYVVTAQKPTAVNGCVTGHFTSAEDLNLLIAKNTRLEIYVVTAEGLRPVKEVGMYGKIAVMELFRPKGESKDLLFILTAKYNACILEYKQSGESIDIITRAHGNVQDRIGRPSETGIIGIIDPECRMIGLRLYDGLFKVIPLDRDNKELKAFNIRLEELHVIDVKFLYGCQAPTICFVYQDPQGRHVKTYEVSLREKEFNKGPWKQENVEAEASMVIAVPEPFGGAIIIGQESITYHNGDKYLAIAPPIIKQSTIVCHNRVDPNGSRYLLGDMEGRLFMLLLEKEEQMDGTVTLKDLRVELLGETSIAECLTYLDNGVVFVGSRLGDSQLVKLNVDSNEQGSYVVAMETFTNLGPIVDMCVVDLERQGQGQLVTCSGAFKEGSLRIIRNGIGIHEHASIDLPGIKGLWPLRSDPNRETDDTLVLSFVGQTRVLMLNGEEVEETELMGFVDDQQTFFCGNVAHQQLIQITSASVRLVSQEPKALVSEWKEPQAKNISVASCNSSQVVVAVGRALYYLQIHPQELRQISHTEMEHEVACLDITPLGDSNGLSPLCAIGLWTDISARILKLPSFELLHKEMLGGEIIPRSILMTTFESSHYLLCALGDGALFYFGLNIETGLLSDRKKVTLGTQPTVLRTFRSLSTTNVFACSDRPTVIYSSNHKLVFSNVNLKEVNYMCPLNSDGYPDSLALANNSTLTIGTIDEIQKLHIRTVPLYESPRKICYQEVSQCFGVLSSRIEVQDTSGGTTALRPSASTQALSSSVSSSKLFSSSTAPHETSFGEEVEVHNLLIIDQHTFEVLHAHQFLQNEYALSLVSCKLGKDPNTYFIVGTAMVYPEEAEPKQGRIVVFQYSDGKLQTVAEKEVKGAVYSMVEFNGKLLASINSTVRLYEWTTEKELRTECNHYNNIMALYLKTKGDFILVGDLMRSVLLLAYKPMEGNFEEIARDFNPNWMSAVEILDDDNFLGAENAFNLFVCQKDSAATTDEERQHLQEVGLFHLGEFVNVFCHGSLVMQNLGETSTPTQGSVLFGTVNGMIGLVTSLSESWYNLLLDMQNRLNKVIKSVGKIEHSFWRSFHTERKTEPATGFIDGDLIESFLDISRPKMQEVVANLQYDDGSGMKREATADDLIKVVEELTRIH
T4 sequence (Q9UKT9 whole entry): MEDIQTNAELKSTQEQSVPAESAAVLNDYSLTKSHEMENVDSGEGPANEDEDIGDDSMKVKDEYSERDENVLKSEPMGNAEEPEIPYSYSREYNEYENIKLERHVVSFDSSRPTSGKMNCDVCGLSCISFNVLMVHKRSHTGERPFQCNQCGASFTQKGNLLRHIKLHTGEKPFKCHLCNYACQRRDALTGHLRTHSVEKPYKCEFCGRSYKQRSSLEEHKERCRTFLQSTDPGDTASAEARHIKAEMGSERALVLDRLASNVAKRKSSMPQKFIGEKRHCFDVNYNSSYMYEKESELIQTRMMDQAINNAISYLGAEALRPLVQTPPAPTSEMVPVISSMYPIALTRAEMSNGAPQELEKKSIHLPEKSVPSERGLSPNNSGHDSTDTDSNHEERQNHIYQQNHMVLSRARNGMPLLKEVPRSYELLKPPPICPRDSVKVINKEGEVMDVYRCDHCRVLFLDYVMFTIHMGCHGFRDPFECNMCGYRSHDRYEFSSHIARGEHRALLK
T4 sequence (Q96SW2 whole entry): as the sequence (Q96SW2 whole entry) above
T4 sequence (Q16531 whole entry partner): as the sequence (Q16531 whole entry partner) above
T3 sequence (Q9UKS7 whole entry): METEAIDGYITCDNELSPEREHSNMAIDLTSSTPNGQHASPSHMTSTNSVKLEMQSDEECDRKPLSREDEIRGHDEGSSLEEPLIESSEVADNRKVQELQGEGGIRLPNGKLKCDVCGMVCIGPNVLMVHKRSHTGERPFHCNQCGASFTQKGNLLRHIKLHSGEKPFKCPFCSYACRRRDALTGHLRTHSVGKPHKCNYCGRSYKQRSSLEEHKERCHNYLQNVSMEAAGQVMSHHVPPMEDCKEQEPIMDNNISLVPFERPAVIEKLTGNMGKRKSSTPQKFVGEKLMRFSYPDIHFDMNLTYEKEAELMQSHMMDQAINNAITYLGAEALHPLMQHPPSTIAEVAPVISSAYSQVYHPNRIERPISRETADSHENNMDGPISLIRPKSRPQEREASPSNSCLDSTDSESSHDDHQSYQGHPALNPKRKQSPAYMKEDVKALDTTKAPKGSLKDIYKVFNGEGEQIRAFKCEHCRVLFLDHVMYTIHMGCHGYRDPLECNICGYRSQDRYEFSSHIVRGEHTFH
T3 sequence (Q96SW2 whole entry): as the sequence (Q96SW2 whole entry) above
T3 sequence (Q16531 whole entry partner): as the sequence (Q16531 whole entry partner) above
T1 sequence (P48729 whole entry): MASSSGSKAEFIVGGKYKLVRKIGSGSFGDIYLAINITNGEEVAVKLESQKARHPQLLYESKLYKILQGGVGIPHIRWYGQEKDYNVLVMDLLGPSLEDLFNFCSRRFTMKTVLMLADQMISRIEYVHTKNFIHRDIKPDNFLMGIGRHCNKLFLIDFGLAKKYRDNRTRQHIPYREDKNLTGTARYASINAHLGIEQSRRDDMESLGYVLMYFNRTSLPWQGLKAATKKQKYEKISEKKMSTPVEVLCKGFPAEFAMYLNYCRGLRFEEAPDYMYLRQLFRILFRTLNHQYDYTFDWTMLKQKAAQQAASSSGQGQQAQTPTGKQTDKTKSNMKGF
T1 sequence (Q96SW2 whole entry): as the sequence (Q96SW2 whole entry) above
T1 sequence (Q16531 whole entry partner): as the sequence (Q16531 whole entry partner) above
T5 sequence (P30291 whole entry): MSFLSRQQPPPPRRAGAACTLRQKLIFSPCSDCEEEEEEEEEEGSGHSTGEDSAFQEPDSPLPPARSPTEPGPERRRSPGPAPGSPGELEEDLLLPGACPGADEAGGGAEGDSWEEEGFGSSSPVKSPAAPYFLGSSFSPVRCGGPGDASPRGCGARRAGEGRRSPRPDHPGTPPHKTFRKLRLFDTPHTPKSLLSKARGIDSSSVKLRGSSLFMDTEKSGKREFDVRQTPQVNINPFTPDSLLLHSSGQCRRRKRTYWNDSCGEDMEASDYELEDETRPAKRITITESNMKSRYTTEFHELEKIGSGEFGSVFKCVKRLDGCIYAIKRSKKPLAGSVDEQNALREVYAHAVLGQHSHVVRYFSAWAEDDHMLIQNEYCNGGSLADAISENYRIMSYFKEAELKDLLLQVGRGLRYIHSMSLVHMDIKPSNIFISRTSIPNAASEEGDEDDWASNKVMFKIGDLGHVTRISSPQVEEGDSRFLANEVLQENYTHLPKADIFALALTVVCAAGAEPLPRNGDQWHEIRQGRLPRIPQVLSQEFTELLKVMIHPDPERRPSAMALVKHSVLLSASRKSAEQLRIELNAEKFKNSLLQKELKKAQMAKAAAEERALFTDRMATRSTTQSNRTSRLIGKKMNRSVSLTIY
T5 sequence (Q96SW2 whole entry): as the sequence (Q96SW2 whole entry) above
T5 sequence (Q16531 whole entry partner): as the sequence (Q16531 whole entry partner) above

SMILES: Cc1nc(C2=CCN(Cc3ccc4c(c3)CN(C3CCC(=O)NC3=O)C4=S)CC2)c2ccsc2n1 (centres unmarked) [GT-09322, 3-(5-((4-(2-methylthieno[2,3-d]pyrimidin-4-yl)-3,6-dihydropyridin-1(2H)-yl)methyl)-1-thioxoisoindolin-2-yl)piperidine-2,6-dione]
- CK1α substrate protein remaining % (CK1α): B (80%< substrate protein remaining %≤ 100%)
- IKZF 1 substrate protein remaining % (IKZF1): A (0% ≤ substrate protein remaining % ≤ 80%)
- IKZF2 substrate protein remaining % (IKZF2): B (80%< substrate protein remaining %≤ 100%)
- IKZF3 substrate protein remaining % (IKZF3): B (80%< substrate protein remaining %≤ 100%)
- Wee1 substrate protein remaining % (WEE1): A (0% ≤ substrate protein remaining % ≤ 80%)
- GSPT1 substrate protein remaining % (GSPT1): A (0% ≤ substrate protein remaining % ≤ 80%)
- inhibition at 0.5 µM [1]: 60 to 80%
- inhibition at 2 µM [1]: 80 to 100%
- inhibition at 0.01 µM [2]: 10 to 20%
- inhibition at 0.5 µM [2]: 80 to 100%
- inhibition at 0.01 µM [3]: 5 to 10%
- inhibition at 0.5 µM [3]: 80 to 100%
- inhibition at 0.01 µM [4]: 10 to 20%
- inhibition at 0.5 µM [4]: 80 to 100%

SMILES: O=C1CCC(N2Cc3cc(CN4CC=C(c5ncnc6sc7c(c56)CCC7)CC4)ccc3C2=S)C(=O)N1 (centres unmarked) [GT-09325, 3-(5-((4-(6,7-dihydro-5H-cyclopenta[4,5]thieno[2,3-d]pyrimidin-4-yl)-3,6-dihydropyridin-1(2H)-yl)methyl)-1-thioxoisoindolin-2-yl)piperidine-2,6-dione]
- CK1α substrate protein remaining % (CK1α): B (80%< substrate protein remaining %≤ 100%)
- IKZF 1 substrate protein remaining % (IKZF1): B (80%< substrate protein remaining %≤ 100%)
- IKZF2 substrate protein remaining % (IKZF2): B (80%< substrate protein remaining %≤ 100%)
- IKZF3 substrate protein remaining % (IKZF3): B (80%< substrate protein remaining %≤ 100%)
- Wee1 substrate protein remaining % (WEE1): A (0% ≤ substrate protein remaining % ≤ 80%)
- GSPT1 substrate protein remaining % (GSPT1): A (0% ≤ substrate protein remaining % ≤ 80%)
- inhibition at 0.5 µM [1]: 60 to 80%
- inhibition at 2 µM [1]: 80 to 100%
- inhibition at 0.01 µM [2]: 5 to 10%
- inhibition at 0.5 µM [2]: 80 to 100%
- inhibition at 0.01 µM [3]: -15 to -5%
- inhibition at 0.5 µM [3]: 80 to 100%
- inhibition at 0.01 µM [4]: 20 to 30%
- inhibition at 0.5 µM [4]: 80 to 100%

SMILES: Cc1sc2ncnc(C3=CCN(Cc4ccc5c(c4)CN(C4CCC(=O)NC4=O)C5=S)CC3)c2c1C (centres unmarked) [GT-09318, 3-(5-((4-(5,6-dimethylthieno[2,3-d]pyrimidin-4-yl)-3,6-dihydropyridin-1(2H)-yl)methyl)-1-thioxoisoindolin-2-yl)piperidine-2,6-dione]
- CK1α substrate protein remaining % (CK1α): B (80%< substrate protein remaining %≤ 100%)
- IKZF 1 substrate protein remaining % (IKZF1): B (80%< substrate protein remaining %≤ 100%)
- IKZF2 substrate protein remaining % (IKZF2): B (80%< substrate protein remaining %≤ 100%)
- IKZF3 substrate protein remaining % (IKZF3): A (0% ≤ substrate protein remaining % ≤ 80%)
- Wee1 substrate protein remaining % (WEE1): A (0% ≤ substrate protein remaining % ≤ 80%)
- GSPT1 substrate protein remaining % (GSPT1): A (0% ≤ substrate protein remaining % ≤ 80%)
- inhibition at 0.5 µM [1]: 53 to 60%
- inhibition at 2 µM [1]: 80 to 100%
- inhibition at 0.01 µM [2]: 10 to 20%
- inhibition at 0.5 µM [2]: 80 to 100%
- inhibition at 0.01 µM [3]: 10 to 20%
- inhibition at 0.5 µM [3]: 80 to 100%
- inhibition at 0.01 µM [4]: 20 to 30%
- inhibition at 0.5 µM [4]: 60 to 70%

SMILES: O=C1CCC(N2Cc3cc(CN4CC=C(c5ncnc6sc7c(c56)CCCC7)CC4)ccc3C2=S)C(=O)N1 (centres unmarked) [GT-09324, 3-(5-((4-(5,6,7,8-tetrahydrobenzo[4,5]thieno[2,3-d]pyrimidin-4-yl)-3,6-dihydropyridin-1(2H)-yl)methyl)-1-thioxoisoindolin-2-yl)piperidine-2,6-dione]
- CK1α substrate protein remaining % (CK1α): B (80%< substrate protein remaining %≤ 100%)
- IKZF 1 substrate protein remaining % (IKZF1): B (80%< substrate protein remaining %≤ 100%)
- IKZF2 substrate protein remaining % (IKZF2): B (80%< substrate protein remaining %≤ 100%)
- IKZF3 substrate protein remaining % (IKZF3): B (80%< substrate protein remaining %≤ 100%)
- Wee1 substrate protein remaining % (WEE1): A (0% ≤ substrate protein remaining % ≤ 80%)
- GSPT1 substrate protein remaining % (GSPT1): A (0% ≤ substrate protein remaining % ≤ 80%)
- inhibition at 0.5 µM [1]: 60 to 80%
- inhibition at 2 µM [1]: 80 to 100%
- inhibition at 0.01 µM [2]: 10 to 20%
- inhibition at 0.5 µM [2]: 80 to 100%
- inhibition at 0.01 µM [3]: 20 to 30%
- inhibition at 0.5 µM [3]: 80 to 100%
- inhibition at 0.01 µM [4]: 30 to 40%
- inhibition at 0.5 µM [4]: 80 to 100%

SMILES: O=C1CCC(N2Cc3cc(CN4CC=C(c5ncc6ccsc6n5)CC4)ccc3C2=S)C(=O)N1 (centres unmarked) [GT-09327, 3-(5-((4-(thieno[2,3-d]pyrimidin-2-yl)-3,6-dihydropyridin-1(2H)-yl)methyl)-1-thioxoisoindolin-2-yl)piperidine-2,6-dione]
- CK1α substrate protein remaining % (CK1α): B (80%< substrate protein remaining %≤ 100%)
- IKZF 1 substrate protein remaining % (IKZF1): B (80%< substrate protein remaining %≤ 100%)
- IKZF2 substrate protein remaining % (IKZF2): A (0% ≤ substrate protein remaining % ≤ 80%)
- IKZF3 substrate protein remaining % (IKZF3): B (80%< substrate protein remaining %≤ 100%)
- Wee1 substrate protein remaining % (WEE1): A (0% ≤ substrate protein remaining % ≤ 80%)
- GSPT1 substrate protein remaining % (GSPT1): A (0% ≤ substrate protein remaining % ≤ 80%)
- inhibition at 0.5 µM [1]: 60 to 80%
- inhibition at 2 µM [1]: 80 to 100%
- inhibition at 0.01 µM [2]: 20 to 30%
- inhibition at 0.5 µM [2]: 80 to 100%
- inhibition at 0.01 µM [3]: 30 to 40%
- inhibition at 0.5 µM [3]: 80 to 100%
- inhibition at 0.01 µM [4]: 20 to 30%
- inhibition at 0.5 µM [4]: 80 to 100%

SMILES: Cc1cc2c(C3=CCN(Cc4ccc5c(c4)CN(C4CCC(=O)NC4=O)C5=S)CC3)ncnc2s1 (centres unmarked) [GT-09316, 3-(5-((4-(6-methylthieno[2,3-d]pyrimidin-4-yl)-3,6-dihydropyridin-1(2H)-yl)methyl)-1-thioxoisoindolin-2-yl)piperidine-2,6-dione]
- CK1α substrate protein remaining % (CK1α): B (80%< substrate protein remaining %≤ 100%)
- IKZF 1 substrate protein remaining % (IKZF1): A (0% ≤ substrate protein remaining % ≤ 80%)
- IKZF2 substrate protein remaining % (IKZF2): B (80%< substrate protein remaining %≤ 100%)
- IKZF3 substrate protein remaining % (IKZF3): A (0% ≤ substrate protein remaining % ≤ 80%)
- Wee1 substrate protein remaining % (WEE1): B (80%< substrate protein remaining %≤ 100%)
- GSPT1 substrate protein remaining % (GSPT1): A (0% ≤ substrate protein remaining % ≤ 80%)
- inhibition at 0.5 µM [1]: 60 to 80%
- inhibition at 2 µM [1]: 80 to 100%
- inhibition at 0.01 µM [2]: 5 to 10%
- inhibition at 0.5 µM [2]: 80 to 100%
- inhibition at 0.01 µM [3]: 10 to 20%
- inhibition at 0.5 µM [3]: 80 to 100%
- inhibition at 0.01 µM [4]: 30 to 40%
- inhibition at 0.5 µM [4]: 80 to 100%

SMILES: O=C1CCC(N2Cc3cc(CN4CC=C(c5ncnc6sccc56)CC4)ccc3C2=S)C(=O)N1 (centres unmarked) [GT-09314, 3-(5-((4-(thieno[2,3-d]pyrimidin-4-yl)-3,6-dihydropyridin-1(2H)-yl)methyl)-1-thioxoisoindolin-2-yl)piperidine-2,6-dione]
- CK1α substrate protein remaining % (CK1α): B (80%< substrate protein remaining %≤ 100%)
- IKZF 1 substrate protein remaining % (IKZF1): A (0% ≤ substrate protein remaining % ≤ 80%)
- IKZF2 substrate protein remaining % (IKZF2): B (80%< substrate protein remaining %≤ 100%)
- IKZF3 substrate protein remaining % (IKZF3): A (0% ≤ substrate protein remaining % ≤ 80%)
- Wee1 substrate protein remaining % (WEE1): A (0% ≤ substrate protein remaining % ≤ 80%)
- GSPT1 substrate protein remaining % (GSPT1): A (0% ≤ substrate protein remaining % ≤ 80%)
- inhibition at 0.5 µM [1]: 80 to 100%
- inhibition at 2 µM [1]: 80 to 100%
- inhibition at 0.01 µM [2]: 5 to 10%
- inhibition at 0.5 µM [2]: 80 to 100%
- inhibition at 0.01 µM [3]: 10 to 20%
- inhibition at 0.5 µM [3]: 80 to 100%
- inhibition at 0.01 µM [4]: 5 to 10%
- inhibition at 0.5 µM [4]: 40 to 50%
